44 molecules from patent US11591336B2 (Relay Therapeutics, Inc., priority 2017, dated 2023) can be followed below.

By IC50 is commonly meant the midpoint of a concentration-inhibition curve.

Counter-ions that a name gives are not always drawn. Bounds are passed on as bounds.

Chain of SHP2 (Q06124 whole entry): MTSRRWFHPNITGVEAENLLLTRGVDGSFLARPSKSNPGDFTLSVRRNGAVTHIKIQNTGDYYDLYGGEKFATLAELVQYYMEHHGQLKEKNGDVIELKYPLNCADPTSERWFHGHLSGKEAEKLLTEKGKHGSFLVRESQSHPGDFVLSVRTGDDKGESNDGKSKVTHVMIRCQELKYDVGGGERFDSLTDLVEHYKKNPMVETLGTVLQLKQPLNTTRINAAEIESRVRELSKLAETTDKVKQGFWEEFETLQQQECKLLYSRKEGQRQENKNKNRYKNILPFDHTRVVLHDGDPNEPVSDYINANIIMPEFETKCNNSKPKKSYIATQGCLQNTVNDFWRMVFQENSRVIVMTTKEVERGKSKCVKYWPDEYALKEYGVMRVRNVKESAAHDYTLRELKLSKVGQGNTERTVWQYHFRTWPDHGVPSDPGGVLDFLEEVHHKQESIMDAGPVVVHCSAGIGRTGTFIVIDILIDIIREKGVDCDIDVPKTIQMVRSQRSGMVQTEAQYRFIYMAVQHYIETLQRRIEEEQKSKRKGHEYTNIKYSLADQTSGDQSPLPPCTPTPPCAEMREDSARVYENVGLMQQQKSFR

This experiment concerns the target SHP2 (Homo sapiens (Human), UniProt Q06124). As to the kind of experiment: SHP2 Allosteric Inhibition Assay (DiFMUP prompt fluorescence). Conditions: 0.25 nM SHP2 activated with 0.5 μM peptide IRS1_pY1172(dPEG8)pY1222; substrate DiFMUP 100 μM; 25° C. Format: biochemical.
The molecule `CC1(CN)CCN(c2cnc3c(N4CCN(C(=O)CO)c5ccccc54)n[nH]c3n2)CC1` [Compound 194, 1-(4-(6-(4-(aminomethyl)-4-methylpiperidin-1-yl)-1H-pyrazolo[3,4-b]pyrazin-3-yl)-3,4-dihydroquinoxalin-1(2H)-yl)-2-hydroxyethan-1-one] yielded an IC50 of under 1 µM.

In the case of `CC1(N)CCN(c2cnc3c(-n4cnc5ccccc54)n[nH]c3n2)CC1` [Compound 20, 1-(3-(1H-benzo[d]imidazol-1-yl)-1H-pyrazolo[3,4-b]pyrazin-6-yl)-4-methylpiperidin-4-amine], the half-maximal inhibitory concentration (IC50) lay in the range of 1 to 10 µM.

With `CC1CNCC(Sc2n[nH]c3nc(N4CCC(C)(N)CC4)cnc23)C1` (centres unmarked) [Cmpd 490], the IC50 is at least 10 µM.

Take `CC1CCc2ccccc2N1c1n[nH]c2nc(N3CCC(C)(N)CC3)cnc12` (centres unmarked) [Compound 34]: the IC50 was under 1 µM.

In the case of `CC1CCN(c2n[nH]c3nc(N4CCC5(CC4)CO[C@@H](C)[C@H]5N)cnc23)c2ccc(C#N)cc21` (some centres unmarked) [Compound 218], the IC50 is under 1 µM.

In turn, `CC1(N)CCN(c2cnc3c(Oc4cnccc4N)n[nH]c3n2)CC1` [Compound 507, 3-((6-(4-Amino-4-methylpiperidin-1-yl)-1H-pyrazolo[3,4-b]pyrazin-3-yl)oxy)pyridin-4-amine hydrochloride] yielded a concentration for half-maximal inhibition (IC50) of at least 10 µM.

Regarding `Cc1ccc2c(c1)CCCN2c1n[nH]c2nc(N3CCC(C)(CN)CC3)cnc12` [Compound 45], the half-inhibitory concentration (IC50) is under 1 µM.

For the molecule `Cn1ccc(Sc2n[nH]c3nc(N4CCC(C)(N)CC4)cnc23)c(Cl)c1=O` [Compound 484, 4-((6-(4-amino-4-methylpiperidin-1-yl)-1H-pyrazolo[3,4-b]pyrazin-3-yl)thio)-3-chloro-1-methylpyridin-2(1H)-one], the concentration for half-maximal inhibition (IC50) was under 1 µM.

As for `CC(=O)N1CCCC(Sc2n[nH]c3nc(N4CCC(C)(N)CC4)cnc23)C1` (centres unmarked) [Compound 488, 1-(3-((6-(4-amino-4-methylpiperidin-1-yl)-1H-pyrazolo[3,4-b]pyrazin-3-yl)thio)piperidin-1-yl)ethan-1-one], the IC50 was at least 10 µM.

For `c1ccc(C2CCCN(c3cnc4c(N5CCCc6ncccc65)n[nH]c4n3)C2)cc1` (centres unmarked) [Compound 152], the IC50 is at least 10 µM.

In the case of `C[C@@H]1OCC2(CCN(c3cnc4c(N5CCCc6nc(C#N)ccc65)n[nH]c4n3)CC2)[C@@H]1N` [Compound 248], the IC50 was under 1 µM.

In turn, `CNC(=O)Cc1cccc2c1CCCN2c1n[nH]c2nc(N3CCC4(CC3)CO[C@@H](C)[C@H]4N)cnc12` [Compound 434, 2-(1-{6-[(3S,4S)-4-amino-3-methyl-2-oxa-8-azaspiro[4.5]decan-8-yl]-1H-pyrazolo[3,4-b]pyrazin-3-yl}-1,2,3,4-tetrahydroquinolin-5-yl)-N-methylacetamide hydrochloride] came in with an IC50 of under 1 µM.

Molecule `NCC1(F)CCN(c2cnc3c(N4CCCc5ncccc54)n[nH]c3n2)CC1` [Compound 76] returned a half-inhibitory concentration (IC50) of under 1 µM.

For the molecule `CC1(N)CCN(c2cnc3c(Sc4cc[nH]c(=O)c4Cl)n[nH]c3n2)CC1` [Compound 477, 4-((6-(4-amino-4-methylpiperidin-1-yl)-1H-pyrazolo[3,4-b]pyrazin-3-yl)thio)-3-chloropyridin-2(1H)-one], the IC50 was under 1 µM.

`CN(C)C(=O)c1cccc2c1CCCN2c1n[nH]c2nc(N3CCC(C)(CN)CC3)cnc12` [Compound 80, 1-(6-(4-(Aminomethyl)-4-methylpiperidin-1-yl)-1H-pyrazolo[3,4-b]pyrazin-3-yl)-N,N-dimethyl-1,2,3,4-tetrahydroquinoline-5-carboxamide] came in with a concentration for half-maximal inhibition (IC50) of under 1 µM.

Regarding `C[C@@H]1OCC2(CCN(c3cnc4c(N5CCCc6nc(C(F)F)ccc65)n[nH]c4n3)CC2)[C@@H]1N` [Compound 297], the IC50 is under 1 µM.

The molecule `C[C@@H]1CCN(c2n[nH]c3nc(N4CCC5(CC4)CO[C@@H](C)[C@H]5N)cnc23)c2ccc(-c3noc(=O)[nH]3)nc21` (relative stereo) [Compound 450, 3-[(8R*)-5-{6-[(3S,4S)-4-amino-3-methyl-2-oxa-8-azaspiro[4.5]decan-8-yl]-1H-pyrazolo[3,4-b]pyrazin-3-yl}-8-methyl-5,6,7,8-tetrahydro-1,5-naphthyridin-2-yl]-4,5-dihydro-1,2,4-oxadiazol-5-one] came in with an IC50 of under 1 µM.

As to `CC1(N)CCN(c2cnc3c(Sc4cccn5ccnc45)n[nH]c3n2)CC1` [Compound 496, 1-(3-(imidazo[1,2-a]pyridin-8-ylthio)-1H-pyrazolo[3,4-b]pyrazin-6-yl)-4-methylpiperidin-4-amine hydrochloride], the IC50 is under 1 µM.

Take `Cn1ccc(Sc2n[nH]c3nc(N4CCC(C)(CN)CC4)cnc23)cc1=O` [Compound 511, 4-((6-(4-(aminomethyl)-4-methylpiperidin-1-yl)-1H-pyrazolo[3,4-b]pyrazin-3-yl)thio)-1-methylpyridin-2(1H)-one]: the IC50 was under 1 µM.

Turning to `C/C(=N/O)c1ccc2c(n1)CCCN2c1n[nH]c2nc(N3CCC4(CC3)CO[C@@H](C)[C@H]4N)cnc12` [Compound 397, (3,4S)-8-(3-{6-[(1Z)-1-(hydroxyimino)ethyl]-1,2,3,4-tetrahydro-1,5-naphthyridin-1-yl}-1H-pyrazolo[3,4-b]pyrazin-6-yl)-3-methyl-2-oxa-8-azaspiro[4.5]decan-4-amine], the half-maximal inhibitory concentration (IC50) is under 1 µM.

Take `C[C@@H]1OCC2(CCN(c3cnc4c(N5CCCc6c5ccnc6C5CC5)n[nH]c4n3)CC2)[C@@H]1N` [Compound 232]: the IC50 is under 1 µM.

Consider `C[C@@H]1OCC2(CCN(c3cnc4c(N5CCCc6c(NS(C)(=O)=O)cccc65)n[nH]c4n3)CC2)[C@@H]1N` [Compound 343, N-(1-{6-[(3S,4S)-4-amino-3-methyl-2-oxa-8-azaspiro[4.5]decan-8-yl]-1H-pyrazolo[3,4-b]pyrazin-3-yl}-1,2,3,4-tetrahydroquinolin-5-yl)methanesulfonamide], for which the 50% inhibitory concentration (IC50) is under 1 µM.

`N[C@@H]1CC(O)CC12CCN(c1cnc3c(N4CCCc5ncccc54)n[nH]c3n1)CC2` (stereo in doubt) [Compound 468, (2R,4R)-4-amino-8-(3-(3,4-dihydro-1,5-naphthyridin-1(2H)-yl)-1H-pyrazolo[3,4-b]pyrazin-6-yl)-8-azaspiro[4.5]decan-2-ol] showed a half-inhibitory concentration (IC50) of under 1 µM.

As to `C[C@@H]1OCC2(CCN(c3cnc4c(N5CCCc6c5cccc6S(=O)(=O)c5cnn(C)c5)n[nH]c4n3)CC2)[C@@H]1N` [Compound 465], the concentration for half-maximal inhibition (IC50) is under 1 µM.

In turn, `C[C@@H]1OCC2(CCN(c3cnc4c(N5CCCc6c5cccc6[S@@](C)(=N)=O)n[nH]c4n3)CC2)[C@@H]1N` [Compound 421] gave an IC50 of under 1 µM.

On to `C[C@@H]1OCC2(CCN(c3cnc4c(N5CCN(C)c6c5cccc6S(C)(=O)=O)n[nH]c4n3)CC2)[C@@H]1N` [Compound 367], for which the concentration for half-maximal inhibition (IC50) is under 1 µM.

In turn, `CCC1CCN(c2n[nH]c3nc(N4CCC(C)(CN)CC4)cnc23)c2ccccc21` (single isomer, unassigned) [Compound 102, hydrochloride] registered a 50% inhibitory concentration (IC50) of under 1 µM.

`COCCN1CCN(c2n[nH]c3nc(N4CCC5(CC4)CO[C@@H](C)[C@H]5N)cnc23)c2ccc(C#N)cc21` [Compound 406]: the IC50 was under 1 µM.

Molecule `CC1(CN)CCN(c2cnc3c(N4CCOc5ccccc54)n[nH]c3n2)CC1` [Compound 163] showed an IC50 of under 1 µM.

The molecule `C[C@H]1CCc2ccccc2N1c1n[nH]c2nc(N3CCC(C)(N)CC3)cnc12` [Compound 35] yielded a 50% inhibitory concentration (IC50) of under 1 µM.

As to `COc1nccc(Sc2n[nH]c3nc(N4CCC(C)(N)CC4)cnc23)c1Cl` [Compound 479, 1-(3-((3-chloro-2-methoxypyridin-4-yl)thio)-1H-pyrazolo[3,4-b]pyrazin-6-yl)-4-methylpiperidin-4-amine], the IC50 was under 1 µM.

In the case of `C[C@@H]1OCC2(CCN(c3cnc4c(N5CCCc6nc(C(N)=O)ccc65)n[nH]c4n3)CC2)[C@@H]1N` [Compound 243, 5-(6-((3S,4S)-4-amino-3-methyl-2-oxa-8-azaspiro[4.5]decan-8-yl)-1H-pyrazolo[3,4-b]pyrazin-3-yl)-5,6,7,8-tetrahydro-1,5-naphthyridine-2-carboxamide], the concentration for half-maximal inhibition (IC50) was under 1 µM.

With `Cc1cccc2c1CCCN2c1n[nH]c2nc(N3CCC(C)(CN)CC3)cnc12` [Compound 46], the 50% inhibitory concentration (IC50) is under 1 µM.

`CO[C@H]1C[C@H](N2CCN(c3n[nH]c4nc(N5CCC6(CC5)CO[C@@H](C)[C@H]6N)cnc34)c3ccc(C#N)cc32)C1` [compound 472] displayed an IC50 of 1 to 10 µM.

Molecule `C[C@@H]1OCC2(CCN(c3cnc4c(N5CCCc6nc(-c7cncs7)ccc65)n[nH]c4n3)CC2)[C@@H]1N` [Compound 356] registered an IC50 of under 1 µM.

`C[C@@H]1CCN(c2n[nH]c3nc(N4CCC5(CC4)CO[C@@H](C)[C@H]5N)cnc23)c2ccc(-c3ncon3)nc21` (single isomer, unassigned) [Compound 371]: the IC50 was under 1 µM.

The molecule `C[C@@H]1OCC2(CCN(c3cnc4c(N5CCc6cc(C#N)ccc6C5)n[nH]c4n3)CC2)[C@@H]1N` [Compound 273] gave a 50% inhibitory concentration (IC50) of under 1 µM.

For `N[C@@H]1CCC[C@@]12CCN(c1cnc3c(N4CCCc5ncccc54)n[nH]c3n1)C2` (relative stereo) [Compound 206, rel-(5S,6R)-2-(3-(3,4-dihydro-1,5-naphthyridin-1(2H)-yl)-1H-pyrazolo[3,4-b]pyrazin-6-yl)-2-azaspiro[4.4]nonan-6-amine], the IC50 fell in the range of 1 to 10 µM.

`CC1(CN)CCN(c2cnc3c(N4CCc5ccccc54)n[nH]c3n2)CC1` [Compound 118] yielded a half-maximal inhibitory concentration (IC50) of under 1 µM.

Regarding `CC1(CN)CCN(c2cnc3c(Cc4ccccc4)n[nH]c3n2)CC1` [Compound 15, (1-(3-benzyl-1H-pyrazolo[3,4-b]pyrazin-6-yl)-4-methylpiperidin-4-yl)methanamine], the IC50 is 1 to 10 µM.

The molecule `C[C@@H]1OCC2(CCN(c3cnc4c(N5CC[C@H](C(F)F)c6cc(C#N)ccc65)n[nH]c4n3)CC2)[C@@H]1N` [Compound 327] returned an IC50 of under 1 µM.

In turn, `Cc1csc(-c2ccc3c(n2)CCCN3c2n[nH]c3nc(N4CCC5(CC4)CO[C@@H](C)[C@H]5N)cnc23)n1` [Compound 361] returned a half-maximal inhibitory concentration (IC50) of under 1 µM.

In the case of `Cc1ccc2c(c1)CCCN2c1n[nH]c2nc(N3CCC4(CC3)CO[C@@H](C)[C@H]4N)cnc12` [Compound 354], the IC50 is under 1 µM.

In the case of `CC1CCN(c2n[nH]c3nc(N4CCC(C)(CN)CC4)cnc23)c2ccccc21` (centres unmarked) [Compound 48], the concentration for half-maximal inhibition (IC50) was under 1 µM.
